Source: patent US20100204277A1, “Compositions and Methods for Controlling Infestation” (HATCHTECH PTY LTD., priority 2007, published 2010)

system: Lice (L) / Plutella (P) eggs; assay: not given; format: in vivo; settings: 1 mM; Lice/Plutella: ND P
Experimental: Log LD50 is obtained from the observed percentage ovicidal activity by conversion using a modified logit transformation. The observed percentage ovicidal activity values were transformed using the equation:
The additional 5% was used to allow a number to be calculated when 0% and 100% activity was observed. The BA is a crude correction to the log of the concentration at which the compounds were tested. Correlation between BA values and LD50 allows the calculation of Log LD50. […] A number of metal chelating agents with potential for inhibiting the remodelling events associated with thin membrane egg hatching in lice were analysed by comparing their percentage ovicidal activity in lice at different concentrations, their logit calculated pLD50, Pref pLD50, Activity class, clogP and molar refractivity were determined.

Structure (SMILES)	Activity class 0 = inactive 1 = low 2 = med 3 = high
CC(=O)CC(=O)c1ccccc1 [Benzoylacetone]	0 (A pLD50 value less than 2 is considered inactive (Class 0))

same assay, conditions: 10 mM; Lice/Plutella: L P

Structure (SMILES)	Activity class 0 = inactive 1 = low 2 = med 3 = high
COc1ccc(C(=O)CC(=O)c2ccc(C(C)(C)C)cc2)cc1 [1-(4-tert-butylphenyl)-3-(4-methoxyphenyl)-propane-1,3-dione]	0 (A pLD50 value less than 2 is considered inactive (Class 0))
c1ccc2nc(-c3ccc4ccccc4n3)ccc2c1 [2,2′-biquinoline]	0 (A pLD50 value less than 2 is considered inactive (Class 0))
c1ccc(Cc2ccccn2)cc1 [2-benzyl-pyridine]	0 (A pLD50 value less than 2 is considered inactive (Class 0))
O=C(CC(=O)C(F)(F)F)c1ccccc1 [4,4,4-Trifluoro-1-phenyl-butane-1,3-dione]	0 (A pLD50 value less than 2 is considered inactive (Class 0))
c1cnc2ccc3ncccc3c2c1 [4,7-phenanthroline]	0 (A pLD50 value less than 2 is considered inactive (Class 0))
c1ccc(-c2cc(N3CCOCC3)c3ccccc3n2)nc1 [4-Morpholin-4-yl-2-pyridin-2-yl-quinoline]	0 (A pLD50 value less than 2 is considered inactive (Class 0))

same assay, conditions: 10 mM; Lice/Plutella: ND P

Structure (SMILES)	Activity class 0 = inactive 1 = low 2 = med 3 = high
N[C@@H]1CCCC[C@H]1O (relative stereo) [Trans-2-aminocyclohexanol]	0 (A pLD50 value less than 2 is considered inactive (Class 0))
Cc1cc(C)cc(C(=O)CC(=O)c2cc(C)cc(C)c2)c1 [1,3-Bis-(3,5-dimethyl-phenyl)-propane-1,3-dione]	0 (A pLD50 value less than 2 is considered inactive (Class 0))
COc1ccc(C(=O)CC(=O)c2ccc(OC)cc2)cc1 [1,3-Bis-(4-methoxy-phenyl)-propane-1,3-dione]	0 (A pLD50 value less than 2 is considered inactive (Class 0))
CC(C)(C)c1ccc(C(=O)CC(=O)c2ccc(C(C)(C)C)cc2)cc1 [1,3-Bis-(4-tert-butyl-phenyl)-propane-1,3-dione]	0 (A pLD50 value less than 2 is considered inactive (Class 0))
O=C(CC(=O)c1cccnc1)c1cccnc1 [1,3-dipyridin-3-yl-propane-1,3-dione]	0 (A pLD50 value less than 2 is considered inactive (Class 0))
CC(=O)C1CCCCC1=O (centres unmarked) [2-Acetylcyclohexanone]	0 (A pLD50 value less than 2 is considered inactive (Class 0))
CC(=O)NO [Acetohydroxamic acid]	0 (A pLD50 value less than 2 is considered inactive (Class 0))
CC(=O)CC(=O)c1ccccc1 [Benzoylacetone]	1 (a pLD50 value between 2 and 3 is considered weakly active (Class 1))
COC(=O)CN [Glycine methyl ester]	0 (A pLD50 value less than 2 is considered inactive (Class 0))

same assay, conditions: 10 mM; Lice/Plutella: P

Structure (SMILES)	Activity class 0 = inactive 1 = low 2 = med 3 = high
c1ccc(-c2ccc3ccccc3n2)nc1 [2-(2-pyridinyl)quinoline]	1 (a pLD50 value between 2 and 3 is considered weakly active (Class 1))
O=C(CC(=O)c1ccccc1)c1ccccc1 [Dibenzoyl methane]	1 (a pLD50 value between 2 and 3 is considered weakly active (Class 1))

system: Plutella xylostella eggs (Waite strain); assay: Plutella xylostella egg hatch (egg dip); settings: 10 mM; Example 18; eggs on fine cloth dipped approximately 2 seconds; day 6 post laying
Experimental: Several hundred Plutella xylostella eggs (Waite strain) were collected, that had been laid over a 24 hour period.
The egg masses were then placed in a humid box at 25° C. until egg hatch. Control eggs were exposed to absolute methanol as described above. At day 6 post laying the eggs were assessed from the different treatments and the percentage of egg hatch determined relative to the control as shown in Table 9.
Batches of Plutella eggs that were laid on either fine cloth or parafilm were dipped in a specific inhibitor solution for between 2-10 seconds, the excess solution was drained by blotting with dry tissue paper. The egg masses were then placed in a humid box at 25 degrees until egg hatch. Control eggs were exposed to absolute methanol as described above or not treated. At day 6 post laying the eggs were assessed from the different treatments and the percentage of egg hatch determined relative to the controls as shown in Tables 10 and 11.
The egg masses were then placed in a humid box at 25 degrees until egg hatch. Control eggs were exposed to absolute ethanol as described above. On day 6 post laying the eggs were assessed from the different treatments and the percentage of egg hatch determined relative to the control.

Structure (SMILES)	% Inhibition of egg hatch relative to control
c1ccc(-c2ccc3ccccc3n2)nc1 [2-(2-pyridinyl)quinoline]	able to inhibit

same assay, conditions: 10 and 1 mM; cloth or parafilm

Structure (SMILES)	egg hatching of Plutella eggs (Tables 10 and 11)
Cc1ccnc(-c2cc(C)ccn2)c1 [4,4′-dimethyl-2,2′-dipyridyl]	significantly inhibit
